Assays:
Type in all cases: cell-based, human
[1] = test system: hM4Di-expressing K18-seeded 4R-P301S-HaloTag neurons; test: DREADDs chronic neuronal silencing, MC1 tau inclusions; details: CNO weekly for 2 weeks starting one week after K18 seeding
Experimental: 4R-P301S-HaloTag iPSCs were differentiated into neurons on coverslips as described. Neurons were transduced with hSyn-hM4Di-mCherry lentivirus on D6. This lentiviral construct was made using the 3rd generation lentiviral plasmid FUGW (Addgene, 14883), where the PacI+EcoRI fragment was replaced by hSyn-hM4D(Gi)-mCherry. pAAV-hSyn-hM4D(Gi)-mCherry was a gift from Bryan Roth (Addgene, 50475; http://n2t.net/addgene). The medium was changed on D7, and neurons were seeded with […] K18-tau fibrils. Neurons were maintained as described. Beginning at D14, clozapine-N-oxide (CNO; Tocris) was included in weekly media changes for a final concentration of […]. Neurons were fixed and stained with MC1 on D29. For MC1 quantification, stained neurons were imaged with a fluorescence microscope (Keyence BZ-X710). A 20× objective was used to acquire a series of 10 Z-stack images per coverslip. To validate the neuronal silencing effect of CNO by calcium imaging, 4R-P301S neurons were differentiated and transduced with hSyn-hM4Di-mCherry and hSyn-GCaMP8f lentivirus on D6. At D36, JFX-549 was added to neurons and prepared for imaging as described above. Exposure time was set to 20 milliseconds. Neurons were perfused with 10 μM CNO at 60 seconds and calcium traces in one field were recorded for 400 seconds.

[2] = test system: hM4Di-expressing 4R-P301S neurons; test: Calcium imaging of acute neuronal silencing by CNO; details: upon addition of CNO
Experimental: 4R-P301S-HaloTag iPSCs were differentiated into neurons on coverslips as described. Neurons were transduced with hSyn-jGCaMP8f lentivirus on D6. This lentiviral construct was made using the 3rd generation lentiviral plasmid FUGW (Addgene, 14883), where the PacI+EcoRI fragment was replaced by the hSyn-GCaMP8f fragment (Zhang et al., 2023). pGP-AAV-hSyn-jGCaMP8f-WPRE was a gift from GENIE Project (Addgene, 162376). The medium was changed on D7, and neurons were seeded with […] K18-tau fibrils. Neurons were maintained as described until imaging at 4 and 5 weeks old. On the day of imaging, JFX-549 HaloTag ligand (HHMI Janelia) was diluted into fresh maturation medium to […], and one-fifth of neuronal medium was replaced with diluted ligand (200 nM final ligand concentration). Cells were incubated at 37° C. for 15 minutes. An equal volume of medium was replaced with half-fresh medium, and half-conditioned medium from a control well. […] Fluorescence time-lapse images were collected on a Nikon FN1 microscope using a 60×, 1.0 NA objective (CFI APO 60XW NIR, Nikon) and a C-FL GFP filter cube. […]
4R-P301S-HaloTag iPSCs were differentiated into neurons on coverslips as described. […] For MC1 quantification, stained neurons were imaged with a fluorescence microscope (Keyence BZ-X710). […] Neurons were perfused with 10 μM CNO at 60 seconds and calcium traces in one field were recorded for 400 seconds.

[3] = test system: tau inclusion in K18-seeded 4R-P301S neurons; test: UBA5 inhibitor treatment, flow cytometry of MC1+ tau inclusions; details: for tau inclusion induced by K18 seeding (MC1+/DAPI+ neurons) compared with control treatment group: treated Day 5, 3.0 ug/mL K18 Day 7, FACS Day 21
Experimental: Pre-differentiation of human iPSCs into neurons was initiated by plating 1.5×10^6 iPSCs in one well Matrigel-coated 6-well plates with Knockout DMEM/F-12 media containing doxycycline ([…]), N2 supplement, non-essential amino acids, brain-derived neurotrophic factor (10 ng/mL, Peprotech), neurotrophin-3 (10 ng/mL, PeproTech) and ROCK inhibitor (Y-27632, Cayman chemicals). The media was replaced the next day without ROCK inhibitor, and pre-differentiation was maintained for a total of three days. On day 0, the pre-differentiated precursor cells were dissociated with Accutase and re-plated generally onto Laminin-coated coverslips (Neuvitro) at 1.5×10^5 cells/coverslip or 12-well tissue culture plates (Corning) at 3.8×10^5 cells/well for the growth of neuronal cultures in Neurobasal Plus media containing B27 supplement, Glutamax, BDNF (10 ng/mL) and NT3 (10 ng/mL) with doxycycline (2 μg/mL). Half of the medium was replaced on day 3, as well as on day 7 with the removal of doxycycline from the fresh media. The medium volume was doubled on day 21. Thereafter, one-half of the medium was replaced with fresh medium weekly until the cells were collected. All human iPS cell lines used in this work have been regularly tested for mycoplasma (Lonza) and karyotyped (MSK Molecular Cytogenetics Core).
Myc-tagged K18-P301L Tau was expressed and purified as previously described2. Briefly, protein expression was induced in Terrific Broth containing the chemical chaperone betaine (10 mM) and IPTG (500 uM) for 3 hrs at 30° C. Tau was purified via the following major steps: mechanical lysis, boiling, centrifugation, and cation exchange. Purified Tau fractions were dialyzed into aggregation assay buffer (PBS pH 7.4, 2 mM DTT). To minimize potential endotoxin contamination, purified tau was incubated with poly(epsilon-lysine) conjugated resin (Pierce), then tested post-treatment for endotoxin levels using the ToxinSensor™ Chromogenic LAL Endotoxin Assay Kit (Genscript). […] The concentration of aggregated tau was quantified by Pierce BCA assay. […]

[4] = test system: 4R-P301S iPSC-derived neurons; test: Toxic effect of UBA5 inhibitor on iPSC-derived neurons; details: 5 uM, 10 uM and 20 uM (data not shown)
Experimental: 4R-P301S iPSCs were seeded at the density of 1.2×10^7 per plate in 10-cm plates in pre-differentiation medium. On day 0, pre-differentiated neurons were replated at the density of 4×10^5 per well in poly-D-lysine (PDL) pre-coated 12-well plates (Corning) in maturation medium. On day 5, iPSCs differentiated neurons were treated with three UBA5 inhibitors separately ay various concentrations. On day 7, iPSCs differentiated neurons were treated with […] K18 fibrils for 2 weeks. On day 21, neurons in 12-well plates were collected for flow cytometry analysis.

Question: For `C[N+]1([O-])CCN(C2=Nc3cc(Cl)ccc3Nc3ccccc32)CC1` [CNO, clozapine-N-oxide], which “levels of Tau inclusions (MC1+ aggregates) compared with vehicle treatment” value [1] is on record?
Answer: The value was “significantly reduced”.

Question: And the “neuronal activities (calcium imaging)” value [2]?
Answer: Its value is “silenced”.

Question: With `CC(=O)c1c(O)c(C)c(O)c2c1OC1=CC(=O)/C(=C(/C)N)C(=O)[C@@]12C` [Usenamine A, (2E,9bR)-6-acetyl-2-(1-aminoethylidene)-7,9-dihydroxy-8,9b-dimethyldibenzouran-1,3-dione] as the compound, how does the “tau inclusion induced by K18 seeding (MC1+/DAPI+ neurons) compared with control treatment group” value ([3]; 0.1 uM) read?
Answer: Its value is “failed to prevent tau inclusion”.

Question: And the “tau inclusion induced by K18 seeding (MC1+/DAPI+ neurons) compared with control treatment group” value ([3]; 1 uM)?
Answer: The value was “successfully prevented tau inclusion”.

Question: And the “percentage of MC1+ cells (tau inclusion induced by K18 treatment)” value ([3]; D21(7+14), 3 μg/ml K18-seeded 4R-P301S neurons pre-treated at various concentrations, FIG. 15 legend)?
Answer: The value was “prevented the tau inclusion”.

Question: And the “toxic effect on neurons” value [4]?
Answer: The value was “exerted toxic effect on neurons”.

Reference: patent publication US20240409890A1, “UFMYLATION INHIBITION TO TARGET TAUOPATHY IN HUMAN NEURONS” (priority 2023, published 2024)
